± gives the expanded uncertainty stated by the source.
Assays:
[1] = Molar enthalpy of transition or fusion; conditions: Crystal; DSC
[2] = Crystal; DTA

## CCc1ccc(CCOc2ccc(CC3SC(=O)NC3=O)cc2)nc1.Cl (configuration not stated)
[1]
  Molar enthalpy of transition or fusion: 12 ± 0.335 kcal/mol
[2]
  Normal melting temperature: 195.62 ± 0.5 °C

— the NIST ThermoML archive (doi:10.1016/j.fluid.2013.05.008)
